# Assays:
# Plasmodium falciparum = assay: Antiplasmodial activity against Plasmodium falciparum K1; type: functional, organism-based
# [1] = tested on: Trypanosoma brucei rhodesiense; assay: Antitrypanosomal activity against Trypanosoma brucei rhodesiense STIB900; type: functional, organism-based
# L6 = assay: Cytotoxicity against rat L6 cells; type: cell-based
# [2] = tested on: Trypanosoma brucei brucei; assay: Antitrypanosomal activity against Trypanosoma brucei brucei; type: functional, organism-based
# [3] = Selectivity index, ratio of IC50 for rat L6 cells to IC50 for Plasmodium falciparum K1; type: toxicity, cell-based; conditions: read-out: Ratio IC50
# Trypanosoma cruzi = assay: Antitrypanosomal activity against clone C4 Trypanosoma cruzi Tulahuen expressing LacZ; type: functional, organism-based
# Leishmania donovani = assay: Antileishmanial activity against axenic amastigotes of Leishmania donovani; type: functional, organism-based
# Leishmania major = assay: Antileishmanial activity against promastigotes of Leishmania major; type: functional, organism-based
# [4] = Trypanosoma brucei, STIB900, read-out: IC50
# [5] = Trypanosoma brucei, read-out: IC50
# [6] = Trypanosoma cruzi, Tulahuen, read-out: IC50
# [7] = Leishmania donovani, read-out: IC50
# [8] = Leishmania major, read-out: IC50
IC50 (Plasmodium falciparum),"IC50 [1, 4]","IC50 [2, 5]",IC50 (Trypanosoma cruzi; [6]),IC50 (Leishmania donovani; [7]),IC50 (Leishmania major; [8]),IC50 [1],IC50 (Trypanosoma cruzi),IC50 (Leishmania donovani),IC50 [2],IC50 (Leishmania major),Compound,IC50 (L6),selectivity ratio [3]
0.46 µM,14.8 µM,15.9 µM,19.2 µM,35.1 µM,> 100 µM,–,–,–,–,–,CC1=N[C@H](C)Cc2c(-c3ccc(C(F)(F)F)cc3)ccc(O)c21,96.8 µM,210
0.708 µM,–,> 100 µM,–,–,> 100 µM,Not Active,Not Active,Not Active,–,–,CC1(C)Cc2c(Br)ccc(O)c2C=N1,> 100 µM,> 141
1.24 µM,–,–,–,–,–,Not Active,Not Active,Not Active,Not Active,Not Active,Oc1ccc(Br)c2c1C=NCC2,> 100 µM,–
> 18.9 µM,> 100 µM,–,> 100 µM,> 100 µM,–,–,–,–,Not Active,Not Active,COc1ccc(Br)c2c1C(C)=N[C@H](C)C2,> 100 µM,–
1.88 µM,6.48 µM,14.8 µM,46.7 µM,74.9 µM,> 100 µM,–,–,–,–,–,COc1ccc(-c2ccccc2)c2c1C(C)=N[C@H](C)C2,58.8 µM,–
0.437 µM,7.12 µM,32 µM,39.3 µM,52 µM,> 86 µM,–,–,–,–,–,CC1=N[C@H](C)Cc2c(-c3ccc(C)cc3)ccc(O)c21,> 100 µM,> 229
9.91 µM,53.5 µM,–,> 100 µM,> 100 µM,–,–,–,–,Not Active,Not Active,CC1=N[C@H](C)Cc2c(-c3ccc(O)cc3)ccc(O)c21,> 100 µM,–
7.96 µM,1.18 µM,–,14 µM,13 µM,–,–,–,–,Not Active,Not Active,COc1ccc(-c2cccc(Cl)c2)c2c1C(C)=N[C@H](C)C2,38.4 µM,–
6.91 µM,3.96 µM,–,15.9 µM,14.4 µM,–,–,–,–,Not Active,Not Active,COc1ccc(-c2cccc3ccccc23)c2c1C(C)=N[C@H](C)C2,34.9 µM,–
3.49 µM,–,–,–,–,–,Not Active,Not Active,Not Active,Not Active,Not Active,Oc1ccc(-c2ccc(O)c3ccccc23)c2c1C=NCC2,94.2 µM,–
0.119 µM,–,–,–,–,–,Not Active,Not Active,Not Active,Not Active,Not Active,COc1cccc2c(-c3ccc(O)c4c3CCN=C4)ccc(OC(C)C)c12,27 µM,227
1.7 µM,–,34.1 µM,–,–,> 100 µM,Not Active,Not Active,Not Active,–,–,COc1cccc2c(-c3ccc(O)c4c3CC(C)(C)N=C4)ccc(O)c12,> 100 µM,–
1.99 µM,–,–,–,–,–,Not Active,Not Active,Not Active,Not Active,Not Active,COc1cccc2c(-c3ccc(O)c4c3CCN=C4)ccc(O)c12,98.2 µM,–

# More lines, now with the values behind:
Compound,IC50 (Plasmodium falciparum),"IC50 [1, 4]","IC50 [2, 5]",IC50 (Trypanosoma cruzi; [6]),IC50 (Leishmania donovani; [7]),IC50 (Leishmania major; [8]),IC50 [1],IC50 (Trypanosoma cruzi),IC50 (Leishmania donovani),IC50 [2],IC50 (Leishmania major),IC50 (L6),selectivity ratio [3]
CC1=N[C@H](C)Cc2c(-c3ccccc3)ccc(O)c21,0.82 µM,4.74 µM,13.4 µM,57.1 µM,> 100 µM,> 100 µM,–,–,–,–,–,52.2 µM,–
CC1=N[C@H](C)Cc2c(-c3ccc(Cl)cc3)ccc(O)c21,0.532 µM,–,> 40 µM,–,–,> 100 µM,Not Active,Not Active,Not Active,–,–,> 100 µM,> 188
CC1=N[C@H](C)Cc2c(-c3cccc(Cl)c3)ccc(O)c21,0.856 µM,7.63 µM,27.1 µM,13.9 µM,24.7 µM,52.4 µM,–,–,–,–,–,50.8 µM,–
CC1=N[C@H](C)Cc2c(-c3cccc4ccccc34)ccc(O)c21,0.763 µM,11.1 µM,2.74 µM,15.8 µM,27.1 µM,13.4 µM,–,–,–,–,–,57.1 µM,–
COc1ccc(-c2ccc3ccccc3c2)c2c1C(C)=N[C@H](C)C2,1.18 µM,4.44 µM,10.1 µM,20.9 µM,21.2 µM,28.1 µM,–,–,–,–,–,72 µM,–
CC1=N[C@H](C)Cc2c(-c3ccc4ccccc4c3)ccc(O)c21,0.476 µM,1.01 µM,25.4 µM,16.7 µM,38.2 µM,34.7 µM,–,–,–,–,–,72.5 µM,152
COc1ccc(-c2ccc(OC)c3ccccc23)c2c1C=NC(C)(C)C2,2.4 µM,–,30.4 µM,–,1.95 µM,37.2 µM,Not Active,Not Active,–,–,–,43.8 µM,–
COc1ccc(-c2ccc(OC)c3ccccc23)c2c1C=NCC2,1.7 µM,–,26.3 µM,10.9 µM,–,46.3 µM,Not Active,–,Not Active,–,–,34.3 µM,–
COc1cccc2c(-c3ccc(O)c4c3CC(C)(C)N=C4)ccc(OC(C)C)c12,0.138 µM,–,–,–,–,–,Not Active,Not Active,Not Active,Not Active,Not Active,> 100 µM,> 725
COc1cccc2c(-c3ccc(O)c4c3CC(C)(C)NC4)ccc(O)c12,0.223 µM,2.92 µM,–,–,–,–,–,Not Active,Not Active,Not Active,Not Active,37.5 µM,168
COc1cccc2c(-c3ccc(O)c4c3CCNC4)ccc(O)c12,0.264 µM,2.48 µM,–,–,–,–,–,Not Active,Not Active,Not Active,Not Active,40.2 µM,152
COc1ccc(-c2ccc(C)cc2)c2c1C(C)=N[C@H](C)C2,2.49 µM,5.83 µM,20.2 µM,19.3 µM,35.5 µM,> 83 µM,–,–,–,–,–,> 100 µM,–
COc1ccc(-c2ccc(O)cc2)c2c1C(C)=N[C@H](C)C2,10.8 µM,4.77 µM,–,25.5 µM,21.4 µM,–,–,–,–,Not Active,Not Active,> 100 µM,–
COc1ccc(-c2ccc(Cl)cc2)c2c1C(C)=N[C@H](C)C2,6.44 µM,7.81 µM,–,15 µM,15.9 µM,–,–,–,–,Not Active,Not Active,56.7 µM,–
COc1ccc(-c2ccc(C(F)(F)F)cc2)c2c1C(C)=N[C@H](C)C2,3 µM,7.38 µM,10.4 µM,> 100 µM,18.3 µM,> 100 µM,–,–,–,–,–,> 100 µM,–
C[C@@H]1[C@H](O)[C@@H](C)/C=C/C=C/C=C/C=C/C=C/C=C/C=C/[C@H](O[C@@H]2O[C@H](C)[C@@H](O)[C@H](N)[C@@H]2O)C[C@@H]2O[C@](O)(C[C@@H](O)C[C@@H](O)[C@H](O)CC[C@@H](O)C[C@@H](O)CC(=O)O[C@H]1C)C[C@H](O)[C@H]2C(=O)O [AMPHOTERICIN B],–,–,–,–,–,2.51 µM,–,–,–,–,–,–,–
O=C(Cn1ccnc1[N+](=O)[O-])NCc1ccccc1 [BENZNIDAZOLE],–,–,–,1.98 µM,–,–,–,–,–,–,–,–,–
Nc1nc(N)nc(Nc2ccc([As]3SCC(CO)S3)cc2)n1 (centres undefined) [MELARSOPROL],–,0.007 µM,–,–,–,–,–,–,–,–,–,–,–
N=C(N)c1ccc(OCCCCCOc2ccc(C(=N)N)cc2)cc1 [PENTAMIDINE],–,–,0.003 µM,–,–,–,–,–,–,–,–,–,–
